One assay concerns colon tumor cell lines. Kind of assay: Tumor cell growth assay, combination with CCI-779, colon lines. The settings on record: compound 4 at 0.1 μg/ml. It is filed as cell-based, human. The procedure: Human tumor cell are all obtained from ATCC, and are cultured using standard cell culture methods. Cells are plated in 96-well culture plates at 1000 to 3000 cells per well. One day following plating, cells are treated with various doses of PI3K inhibitor Compound 4 or Compound 5 alone or with a low constant dose of MEK inhibitor 2-(2-chloro-4-iodoanilino)-N-(cycloprorylmethoxy-3,4-difluobenzamide) (1 μg/ml) or UO126 (5 μg/ml). UO126 is also known as 1,4-diamino-2,3-dicyano-1,4-bis[2-aminophenylthio]butadiene. In some experiments, cells are treated alone with various doses of the MEK inhibitor (2-(2-chloro-4-iodoanilino)-N-(cycloprorylmethoxy-3,4-difluobenzamide)), or HER2/neu inhibitor HKI-272, or mTOR inhibitor CCI-779, or with a low constant dose of Compound 4 (0.1 μg/ml). […] Three days after drug treatment, viable cell densities are determined by metabolic conversion (by viable cells) of the dye MTS, an established cell proliferation assay. […] The MTS assay results are read in a 96-well plate reader by measuring absorbance at 490 nm. The effect of each treatment is calculated as percent of control growth relative to the vehicle DMSO-treated cells grown in the same culture plate. […]

Another assay relates to T1, PI3K.
T1 construct: PI3K FP IC50
Kind of assay: Fluorescence polarization assay for PI3K. The class given is biochemical. Summed up: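 PI3K was preincubated with compound at 1% DMSO final, then reacted with PIP2/ATP substrate for 30-60 min. The reaction was stopped with a detector mix giving 10 nM red probe and 70 nM GST-GRP. Fluorescence polarization (mP, Tamra filters) was read 30-90 min later and IC50 determined.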
On the technique in general: Polarisation of emitted light reports the rotation of a fluorescent probe.

In a further assay the target is T2, Human TOR (Homo sapiens, UniProt P42345).
T2 construct: FLAG
Briefly: Human TOR (mTOR) kinase assay, DELFIA format. It is filed as biochemical. Summed up: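 Purified FLAG-TOR (800 ng/mL) phosphorylates His6-S6K ([…]) with […] ATP in Hepes pH 7.4 buffer containing MnCl2, 2 h at room temperature. Phospho-Thr389 S6K detected by DELFIA using Europium-labelled anti-P(T389)-p70S6K antibody; enzyme inhibition calculated from signal.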

Molecules are shown by their SMILES. pIC50: −log10 of the molar value.

A word on the pIC50: it is the negative decadic logarithm of the IC50, by convention in mol/L. A high value points to a small IC50. As for `COC[C@H]1OC(=O)/C(=C/N(CCO)C(C)(C)C)C2=C(O)C(=O)C3=C([C@H](OC(C)=O)C[C@@]4(C)C3CC[C@@H]4O)[C@]21C` (stereo partly drawn) [Compound 4, (1E,4S,4aR,5R,6aS,7S)-1-{[tert-butyl(2-hydroxyethyl)amino]methylene}-7,11-dihydroxy-4-(methoxymethyl)-4a,6a-dimethyl-2,10-dioxo-1,2,4,4a,5,6,6a,7,8,9,9a,10-dodecahydroindeno[4,5-h]isochromen-5-yl acetate], the “growth inhibition in combination with mTOR inhibitor CCI-779” value with colon tumor cell lines was “synergistically inhibited growth”. In addition, the “PI3K FP IC50” value with PI3K (Table 1) stood at 0.596 µg/mL. This compound also gave a pIC50 in the assay with PI3K (Table 2) of 6.00. In addition, the “TOR IC50” value at Human TOR (Table 1) is 16 µg/mL; at Human TOR (Table 2) it was greater than 10 µg/mL.
